Values belong to the molecule of their own block, whether it stands above or below them. Bridge positions count the residues as written; N and C are the ends. Square brackets hold non-standard residues; d marks the D form. Ends that are not written are not given here. Phe(3,5-F2) = N[C@@H](Cc1cc(F)cc(F)c1)C(=O)O; Hyp = O=C(O)[C@@H]1C[C@@H](O)CN1; BP = bis-pyrene
How the values were obtained:
4T1 tumour cells = experiment: Flow cytometry binding of LXY30 to 4T1 cells; parameters: species or system murine; conditions: 1 μM biotinylated LXY30
Procedure: Experiments were repeated three times. 3×10^5 cells incubated with 1 μM biotinylated LXY30 for 30 min on ice, after washing with PBS followed by incubation with 1:500 streptavidin-PE (1 mg/mL) for 30 min, then run with flow cytometry.

[1] = target: T1, HER2 receptor on the surface of HER2+ breast cancer cells (MCF-7/C6, SKBR-3, BT474) (human, UniProt P04626 23-1255); experiment: confocal microscopy on MCF-7/C6 cells, 8 h
T1 construct: whole, on cells; Endogenous HER2 on cell lines; MCF-7/C6 is derived from the human breast cancer line MCF-7 by fractionated irradiation; also called cell surface HER2; HER2 receptors of MCF-7/C6 cells

Molecule: cdG-Phe(3,5-diF)-G-Hyp-NcR ([dC][dD]G[Phe(3,5-F2)]G[Hyp]N[dC]R; also: cyclic peptide, ring type and places not given here) [LXY30]
binding to 4T1 tumour cells (4T1 tumour cells): did bind

binding result [1]: binds
B1: NPs2, nanoparticles self-assembled from transformable peptide monomer 2 (TPM2′) BP-GGAAK-YCDGFYACYMDV (peptide)
peptide: {BP}-GGAAKYCDGFYACYMDV
modifications: disulfide 7-13 (inferred)
notes: Negative control with the HER2 ligand but without the beta-sheet forming peptide; Tested as nanoparticles of about 30 nm

— US20220387633A1, “SMART PEPTIDES AND TRANSFORMABLE NANOPARTICLES FOR CANCER IMMUNOTHERAPY” (The Regents of the University of California, priority 2019, published 2022)
